# Measured values as given in patent US12264173B2 (GILEAD SCIENCES, INC., priority 2020, dated 2025).
# Like-named read-outs stand apart in the source and are kept apart here.
# Assays:
# Type in all cases: cell-based
# DENV2 replicon = assay: DENV-2 Huh-7 Rep EC50 (replicon luminescence)
# Procedure, shortened: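 Huh-7 cells carrying a DENV2 replicon, 5,000 cells/well, were incubated with dosed compounds for 48 h at 37° C. EnduRen live-cell substrate was added 1.5 h before luminescence reading. EC50 came from dose-response against DMSO-only wells.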
# [1] = test system: Dengue serotype 2 New Guinea C (NGC) strain; assay: DENV-2 Huh-7 EC50 (qPCR in Huh7 cells)
# Description: Huh7 (Human hepatocarcinoma 7) cells were maintained in 10% FCS-containing DMEM complete media. On the day of the assay, cells were trypsinized (0.1% Trypsin-EDTA), washed and infected for 2 hours in serum-free DMEM with Dengue serotype 2 New Guinea C (NGC) strain at MOI=0.1 with gentle agitation at 37° C. After 2 hours, cells were washed with serum-free media and suspended in 10% FCS-containing DMEM (Gibco, supplemented with sodium pyruvate, NEAA, Penicillin-Streptomycin). 10^5 cells were plated in triplicate in 96-well plates with compounds dispensed at graded doses (Hewlett-Packard D300 Digital Dispenser). All wells were normalized to 0.25% DMSO. At 48 hours, cells were washed with 1×PBS and all supernatants removed. Total RNA was extracted using RNEasy 96 plates (Qiagen) and used to generate first-strand cDNA using XLT cDNA 5× Supermix (QuantaBio). cDNA was used as a template in a Taqman qPCR duplex reaction specific to DENV2 viral and GAPDH gene expression. EC50 values were determined using Prism Graphpad software, with normalization to a positive control and no compound negative control wells.
# RSV strain A2 = assay: microbe, parasite or virus in culture; details: Table 3, HEp-2 cells, RSV A2, 4 days, read-out: RSV HEp-2 EC50
# Procedure, shortened: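 Cytopathic-effect protection assay: HEp-2 cells (50,000/mL) infected with pre-titered RSV A2 onto 3-fold serial compound dilutions, incubated 4 days at 37° C. Cell viability read by CellTiter-Glo luminescence; percent inhibition derived against 0% and 100% virus-inhibition controls.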
# HRV16 = HRV16 HeLa EC50 (cytopathic effect in H1-HeLa cells); details: read-out: HRV16 HeLa EC50
# Procedure, shortened: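 H1-HeLa cells seeded one day before, given 3-fold serial compound dilutions in triplicate just prior to infection with pre-titrated virus. Incubated 96 h at 33 °C/5% CO2; protection from cytopathic effect read as viability by CellTiter-Glo luminescence, normalised to infected untreated (0%) and uninfected (100%) controls.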
# RSV A2 = assay: RSV NHBE EC50 (RSV A2 antiviral assay in NHBE cells); details: read-out: RSV NHBE EC50
# Procedure, shortened: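 NHBE cells (≤6 passages) were seeded at 7,500 cells per well, treated with 3-fold serially diluted compound at 0.05% DMSO, then infected with RSV A2 at 1×10^4.5 TCID/mL. After 4 days at 37° C, viability was measured by CellTiter-Glo luminescence.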
# HCV Rep 1B = HCV Rep 1B EC50 (replicon luciferase); details: Table 4; replicon cells, 3 days; read-out: HCV Rep 1B EC50
# Description: (§1) Compounds were serially diluted in ten steps of 1:3 dilutions in 384-well plates. All serial dilutions were performed in four replicates per compound within the same 384-well plate. […] To each well of a black polystyrene 384-well plate (Greiner Bio-one, Monroe, NC), 90 μL of cell culture medium (without Geneticin) containing 2000 suspended HCV replicon cells was added with a Biotek μFlow workstation. For compound transfer into cell culture plates, 0.4 μL of compound solution from the compound serial dilution plate was transferred to the cell culture plate on a Biomek FX workstation. The DMSO concentration in the final assay wells was 0.44%. The plates were incubated for 3 days at 37° C. with 5% CO2 and 85% humidity. The HCV replicon assay was a multiplex assay, able to assess both cytotoxicity and antireplicon activity from the same well. The CC50 assay was performed first. The media in the 384-well cell culture plate was aspirated, and the wells were washed four times with 100 μL of PBS each, using a Biotek ELX405 plate washer. A volume of 50 μL of a solution containing 400 nM calcein AM (Anaspec, Fremont, CA) in 1×PBS was added to each well of the plate with a Biotek μFlow workstation. The plate was incubated for 30 min at room temperature before the fluorescence signal (excitation 490 nm, emission 520 nm) was measured with a Perkin-Elmer Envision plate reader. The EC50 assay was performed in the same wells as the CC50 assay. The calcein-PBS solution in the 384-well cell culture plate was aspirated with a Biotek ELX405 plate washer. A volume of 20 μL of Dual-Glo luciferase buffer (Promega, Madison, WI) was added to each well of the plate with a Biotek μFlow Workstation. The plate was incubated for 10 min at room temperature. A volume of 20 μL of a solution containing a 1:100 mixture of Dual-Glo Stop & Glo substrate (Promega, Madison, WI) and Dual-Glo Stop & Glo buffer (Promega, Madison, WI) was added to each well of the plate with a Biotek μFlow Workstation. The plate was then incubated at room temperature for 10 min before the luminescence signal was measured with a Perkin-Elmer Envision Plate Reader.
# HCV Rep 2A = HCV Rep 2A EC50 (replicon luciferase); details: Table 4; replicon cells, 3 days; read-out: HCV Rep 2A EC50
# Description: as §1
# [2] = Table 3, Huh-7 DENV2 replicon cells, 48 hours, read-out: DENV-2 REP Huh7 EC50
# [3] = Table 3, NHBE cells, RSV A2, 4 days
# [4] = Dengue virus, DENV2, Huh-7, 48 h, read-out: DENV-2 REP Huh7 EC50
# [5] = human respiratory syncytial virus, HEp-2, 96 h
# [6] = 96 h, Table 3, H1-HeLa cells, 96 h
# [7] = human respiratory syncytial virus, NHBE, 96 h, Table 3, NHBE cells, RSV A2, 4 days
Compound,EC50 (DENV2 replicon; [2]) [nM],EC50 (RSV strain A2) [nM],"EC50 (HRV16; Table 3, H1-HeLa cells, 96 h) [nM]",EC50 (RSV A2; [3]) [nM],EC50 (DENV2 replicon; [4]) [nM],EC50 (RSV strain A2; [5]) [nM],EC50 (HRV16; [6]) [nM],EC50 (RSV A2; [7]) [nM],other results
CCC(=O)O[C@H]1[C@H](c2ccc3c(N)ncnn23)O[C@](C#N)(CO[P@](=O)(N[C@@H](C)C(=O)OCC2CC2)Oc2ccccc2)[C@H]1OC(=O)CC [Example 100],18800,58,147,13,–,–,–,–,"EC50 ([1]; Table 3, Huh7 cells, 48 hours, read-out: DENV-2 Huh7 EC50): 1130 nM"
"CCOC(=O)[C@H](C)N[P@](=O)(OC[C@@]1(C#N)O[C@@H](c2ccc3c(N)ncnn23)[C@H](O)[C@@H]1O)Oc1ccccc1 [Example 29, Ethyl ((S)-(((2R,3S,4R,5S)-5-(4-aminopyrrolo[2,1-f][1,2,4]triazin-7-yl)-2-cyano-3,4-dihydroxytetrahydrofuran-2-yl)methoxy)(phenoxy)phosphoryl)-L-alaninate]",–,–,–,–,–,–,–,–,"EC50 (DENV2 replicon; Dengue virus, DENV2, Huh-7, read-out: DENV Rep EC50): 36100 nM; EC50 ([1]; Dengue virus, Huh-7, Table 5 comparative activity, 2',3'-OH vs -OC(O)iPr, read-out: DENV Huh7 EC50): 1880 nM; EC50 (HRV16; HeLa, Table 5 comparative activity, 2',3'-OH vs -OC(O)iPr): 678 nM; EC50 (RSV A2; human respiratory syncytial virus, NHBE, Table 5 comparative activity, 2',3'-OH vs -OC(O)iPr): 932 nM"
"CC(C)C(=O)OC1C(c2ccc3c(N)ncnn23)OC(C#N)(COP(=O)(NC(C)C(=O)OC2CCN(C)C2)Oc2ccccc2)C1OC(=O)C(C)C (single isomer, unassigned) [Example 234]",–,57,–,30,–,–,–,–,EC50 (HCV Rep 1B): 905 nM; EC50 (HCV Rep 2A): 1820 nM
"CC(C)C(=O)O[C@H]1[C@H](c2ccc3c(N)ncnn23)O[C@](C#N)(COP(=O)(N[C@@H](C)C(=O)OC2COC2)Oc2ccccc2)[C@H]1OC(=O)C(C)C (single isomer, unassigned) [Example 185]",–,26,–,–,–,–,–,–,EC50 (HCV Rep 1B): 217 nM; EC50 (HCV Rep 2A): 730 nM
"CC(C)OC(=O)C(C)NP(=O)(OCC1(C#N)OC(c2ccc3c(N)ncnn23)C(OC(=O)C(C)C)C1OC(=O)C(C)C)Oc1ccc(C(=O)N(C)C)cc1 (single isomer, unassigned) [Example 178]",53200,633,1070,163,–,–,–,–,–
"CO[C@H](C)C(=O)O[C@H]1[C@H](c2ccc3c(N)ncnn23)O[C@](C#N)(CO[P@@](=O)(N[C@@H](C)C(=O)OC(C)C)Oc2ccccc2)[C@H]1OC(=O)[C@@H](C)OC [Example 154, (2R,3S,4S,5S)-5-(4-aminopyrrolo[2,1-f][1,2,4]triazin-7-yl)-2-cyano-2-((((S)-(((S)-1-isopropoxy-1-oxopropan-2-yl)amino)(phenoxy)phosphoryl)oxy)methyl) tetrahydrofuran-3,4-diyl (2R,2′R)-bis(2-methoxypropanoate)]",–,–,–,–,20500,185,874,114,–
CCCOC(=O)[C@H](C)NP(=O)(OC[C@@]1(C#N)O[C@@H](c2ccc3c(N)ncnn23)[C@H](OC(=O)CC)[C@@H]1OC(=O)CC)Oc1ccccc1 (mixture of isomers) [Example 187],–,–,–,–,5930,24,88,17,–
"CCC(CC)COC(=O)[C@H](C)NP(=O)(N[C@@H](C)C(=O)OCC(CC)CC)OC[C@@]1(C#N)O[C@@H](c2ccc3c(N)ncnn23)[C@H](OC(C)=O)[C@@H]1OC(C)=O [Example 114, (2R,3S,4S,5S)-5-(4-Aminopyrrolo[2,1-f][1,2,4]triazin-7-yl)-2-cyano-2-((((((S)-1-(2-ethylbutoxy)-1-oxopropan-2-yl)amino)(((2S)-1-(2-ethylbutoxy)-1-oxopropan-2-yl)amino)phosphoryl)oxy)methyl)tetrahydrofuran-3,4-diyl diacetate]",–,–,–,–,–,1660,3850,201,"EC50 (DENV2 replicon; Dengue virus, DENV2, Huh-7, 48 h, read-out: DENV-2 REP Huh7 EC50, Table 3, Huh-7 DENV2 replicon cells, 48 hours): 26300 nM"
"CCCOC(=O)[C@H](C)NP(=O)(OC[C@@]1(C#N)O[C@@H](c2ccc3c(N)ncnn23)[C@H](OC(=O)C(C)C)[C@@H]1OC(=O)C(C)C)Oc1ccccc1 (single isomer, unassigned) [Example 192]",8670,29,101,45,–,–,–,–,–
"C[C@H](NP(=O)(OC[C@@]1(C#N)O[C@@H](c2ccc3c(N)ncnn23)[C@H](OC(=O)C(C)(C)C)[C@@H]1OC(=O)C(C)(C)C)Oc1ccccc1)C(=O)OC1COC1 (stereo partly drawn) [Example 206, (2R,3S,4S,5S)-5-(4-aminopyrrolo[2,1-f][1,2,4]triazin-7-yl)-2-cyano-2-((((((S)-1-(oxetan-3-yloxy)-1-oxopropan-2-yl)amino)(phenoxy)phosphoryl)oxy)methyl) tetrahydrofuran-3,4-diyl bis(2,2-dimethylpropanoate)]",–,–,–,–,7590,338,308,36,–
"CC(C)[C@H](N)C(=O)O[C@H]1[C@H](c2ccc3c(N)ncnn23)O[C@](C#N)(CO[P@@](=O)(N[C@@H](C)C(=O)OC2CCCCC2)Oc2ccccc2)[C@H]1OC(=O)[C@@H](N)C(C)C [Example 122, (2R,3S,4S,5S)-5-(4-aminopyrrolo[2,1-f][1,2,4]triazin-7-yl)-2-cyano-2-((((S)-(((S)-1-(cyclohexyloxy)-1-oxopropan-2-yl)amino)(phenoxy)phosphoryl)oxy)methyl)tetrahydrofuran-3,4-diyl (2S,2'S)-bis(2-amino-3-methylbutanoate)]",–,–,–,–,5540,79,301,90,–
CC(=O)O[C@H]1[C@H](c2ccc3c(N)ncnn23)O[C@](C#N)(CO[P@](=O)(N[C@@H](C)C(=O)OCC2CCC2)Oc2ccccc2)[C@H]1OC(C)=O [Example 96],16800,63,417,20,–,–,–,–,–
